Measurements: PubChem BioAssay (NCI)
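Results reflect a 48-hour exposure of cells in 96-well plates to compound at five concentrations. TGI marks complete inhibition of growth.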

How the values were obtained:
Test in all cases: DTP human tumour cell line panel, 48 h
CCRF-CEM leukemia = tested on: CCRF-CEM leukemia
COLO 205 colon = tested on: COLO 205 colon
EKVX NSCLC = tested on: EKVX NSCLC
HT29 colon = tested on: HT29 colon
IGROV1 ovarian = tested on: IGROV1 ovarian
KM12 colon = tested on: KM12 colon
KM20L2 colon = tested on: KM20L2 colon
LOX IMVI melanoma = tested on: LOX IMVI melanoma
MOLT-4 leukemia = tested on: MOLT-4 leukemia
NCI-H226 lung = tested on: NCI-H226 lung
NCI-H23 lung = tested on: NCI-H23 lung
NCI-H460 lung = tested on: NCI-H460 lung
NCI-H522 lung = tested on: NCI-H522 lung
RXF 393 renal = tested on: RXF 393 renal
SF-268 CNS = tested on: SF-268 CNS
SF-295 CNS = tested on: SF-295 CNS
SF-539 CNS = tested on: SF-539 CNS
SK-MEL-28 melanoma = tested on: SK-MEL-28 melanoma
SNB-19 CNS = tested on: SNB-19 CNS
OVCAR-3 ovarian = tested on: OVCAR-3 ovarian

| Structure (SMILES) | TGI (CCRF-CEM leukemia) | TGI (COLO 205 colon) | TGI (EKVX NSCLC) | TGI (HT29 colon) | TGI (IGROV1 ovarian) | TGI (KM12 colon) | TGI (KM20L2 colon) | TGI (LOX IMVI melanoma) | TGI (MOLT-4 leukemia) | TGI (NCI-H226 lung) | TGI (NCI-H23 lung) | TGI (NCI-H460 lung) | TGI (NCI-H522 lung) | TGI (RXF 393 renal) | TGI (SF-268 CNS) | TGI (SF-295 CNS) | TGI (SF-539 CNS) | TGI (SK-MEL-28 melanoma) | TGI (SNB-19 CNS) | TGI (OVCAR-3 ovarian) |
| --- | --- | --- | --- | --- | --- | --- | --- | --- | --- | --- | --- | --- | --- | --- | --- | --- | --- | --- | --- | --- |
| CC(=O)NNc1nc(C)c(C(=O)NNC(=O)C(=O)Nc2cccc(C(C)=O)c2)s1 | 67.3 µM | > 100 µM | > 100 µM | > 100 µM | 60.7 µM | 57.7 µM | > 100 µM | 39.1 µM | > 100 µM | 62 µM | 35.2 µM | 33.2 µM | 28.9 µM | 30 µM | 54 µM | 66.2 µM | 39.8 µM | 49 µM | > 100 µM |  |
| C[S+](C)CC1OC(n2cnc3c(N)ncnc32)C(O)C1O (centres undefined) | > 225 µM | > 225 µM | > 225 µM | > 225 µM | > 225 µM | > 225 µM | > 225 µM | > 225 µM | > 225 µM | > 225 µM | > 225 µM | > 225 µM | > 225 µM | > 225 µM | > 225 µM | > 225 µM | > 225 µM | > 225 µM | > 225 µM | > 225 µM |
| CN(C)CCNC(=O)c1cccc2cc3cc(O)ccc3nc12 | 5.44 µM | 3.88 µM | 5.24 µM | 4.95 µM | 4.43 µM | 10.4 µM | 8.13 µM | 2.72 µM | 3.17 µM | 2.48 µM | 3.24 µM | 2.16 µM |  | 10 µM | 5.66 µM | 3.4 µM | 4.23 µM | 4.65 µM | 3.53 µM | 3.61 µM |
| COC(=O)C1=C(O)C(C(=O)OC)[C@]2(O)[C@@H](C(=O)OC)[C@H]1C[C@@H](c1ccccc1)[C@@H]2C(=O)OC (some centres undefined) | 49.3 µM |  | 53.6 µM | 36.7 µM |  | 25.8 µM |  | 39.3 µM | 55.6 µM | 61.5 µM | 32.1 µM | 37.8 µM | 20.6 µM | 19.9 µM | 8.12 µM |  | 25.5 µM | 64.9 µM | 68.7 µM | 31.8 µM |
| CC(C)(C)C(=O)OCC1OC(N=[N+]=[N-])C(OC(=O)C(C)(C)C)C(OC(=O)C(C)(C)C)C1OC(=O)C(C)(C)C (centres undefined) | > 100 µM | > 100 µM | > 100 µM | > 100 µM | > 100 µM | > 100 µM | > 100 µM |  | > 100 µM |  | > 100 µM | > 100 µM | > 100 µM | > 100 µM | > 100 µM | > 100 µM | > 100 µM | > 100 µM | > 100 µM | > 100 µM |
| Cc1ccc(N(O)C(C)(C)C)cc1 | > 100 µM | > 100 µM | > 100 µM | > 100 µM | > 100 µM | > 100 µM | > 100 µM | > 100 µM | > 100 µM | > 100 µM | > 100 µM | > 100 µM | > 100 µM | > 100 µM | > 100 µM | > 100 µM | > 100 µM | > 100 µM | > 100 µM | > 100 µM |
| O=Nn1c2ccccc2c2cc([N+](=O)[O-])ccc21 | 44.5 µM | > 100 µM | 36.3 µM | 68 µM | 30.2 µM | 42 µM |  | 30.9 µM | 70.9 µM |  | 38.3 µM | 54.2 µM | 29.1 µM | 30.8 µM | 32.7 µM | 28.5 µM | 37.2 µM | 39.3 µM | 58.1 µM | 33.6 µM |
| CC(C)OP(=O)(OC(C)C)C1=NN(c2ccc([N+](=O)[O-])cc2)C(P(=O)(OC(C)C)OC(C)C)=NN1c1ccc([N+](=O)[O-])cc1 | > 100 µM | > 100 µM | > 100 µM | > 100 µM | > 100 µM | > 100 µM | > 100 µM | > 100 µM | > 100 µM | > 100 µM | > 100 µM | > 100 µM | > 100 µM | > 100 µM | > 100 µM |  | > 100 µM | > 100 µM | > 100 µM | > 100 µM |
